The results in this text go back to patent US7476383B2, “Antibody selective for DR4 and uses thereof” (The UAB Research Foundation, priority 2000, dated 2009).

For data set [1], the system named is 2LMP human breast cancer xenografts. Put plainly: 2LMP breast cancer xenografts in athymic nude mice. It is filed as in vivo. As to the method:
Nude mice were inoculated s.c. with the human breast cancer cell line, 2LMP. Treatment with i.p. doses of 200 μg of 2E12 occurred on days 7, 10, 14, 17, 21, and 24 after tumor cell injection. Animals received i.v. adriamycin (doxorubicin) (6 mg/kg) on days 8, 12, and 16.
Athymic nude mice were injected s.c. with 3×10^7 2LMP cells. […] The growth of tumors was monitored over time. […] Tumor size and regression rates were determined.
Data from 6 independent experiments were analyzed by individual experiment. Treatment combinations were compared with respect to in vivo anti-tumor efficacy, i.e., inhibition of tumor growth, which was measured as three endpoints; extension of tumor doubling times, percentage of tumor regressions, and growth rates over time. The actual number of days at which the tumor doubled in surface area (product of two diameters) relative to baseline on day 7 after tumor cell injection was used in the doubling time analysis. The nonparametric Kruskal-Wallis test was used for median tumor doubling time comparisons between treatments. Fisher's exact test was used to compare the proportions of tumor regressions and relapse-free regressions across treatment groups. To determine if any combination therapy produced significant synergistic inhibition of tumor growth, i.e., more than additive, the growth curves from the serial area measurements were compared using a linear mixed model approach over the first 3 weeks after start of therapy (Lindsey, J. K. Models for Repeated Measurements, pp. 100-142, Oxford, 1993). To test for synergistic effects of the combination therapies, an interaction term was included in the model. If the interaction term was significant and the effect was inhibition of growth at a rate greater than additive then the interaction was considered synergistic.
A total of 166 animals, 10 treatment groups, and 6 independent experiments were included in the aggregate analysis. Treatment combinations were compared with respect to in vivo anti-tumor efficacy. The median tumor doubling times were analyzed using the Kruskal-Wallis test and Fisher's exact test was used to compare the proportions of tumor regressions and relapse-free regressions across treatment groups.

The test system of the next data set is 2LMP xenografts. Put plainly: TUNEL analysis of apoptosis in xenografts. The class given is in vivo, athymic nude mice. To be noted: day 14; untreated 1%. As to the method:
One group of mice was untreated. The xeno grafts were dissected for the study of apoptosis on day 14 after tumor cell injection. The reason for the substantial reduction in treatment intensity compared to our standard treatment protocol was to allow adequate tumor tissue for analysis on day 14. Tunel assay for apoptosis in tumor xenografts was performed as follows. Five-micron paraffin sections of tissue were mounted on Superfrost/Plus slides and heated at 58° C. for 1 h. Tissue sections were deparaffinized in three changes of xylene and rehydrated with one change of absolute ethanol, 95% ethanol, and 70% ethanol, each in 5-min increments. Then, the sections were placed in Tris-buffered saline (0.5M Tris base, 0.15 M NaCl, 0.0002% Triton X-100, pH 7.6). Apoptotic nuclei were detected using an Apop Tag Peroxidase kit (Intergen, Purchase, N.Y.). Proteinase K (20 μg/ml in distilled deionized H2O) was added to the tissue specimens and incubated at room temperature for 15 min. Endogenous peroxidases were quenched with an aqueous solution of 3% hydrogen peroxide for 5 min. […] Approximately 10 random fields were evaluated for percentage of Tunel stained and percentage of intensely stained apoptotic bodies throughout the tissue.

In the next data set the test system is Jurkat cells. Put plainly: Jurkat cell viability (ATPLite, MTT, PI exclusion). The class given is cell-based, human. As to conditions: 50 ng/ml TRA-8 overnight. As to the method: (§1) Cell viability is determined using (1) the ATPLite kit according to the manufacturer's instructions (Packard Instruments, Meriden, Conn.); (2) the MTT Cell proliferation/viability kit (Sigma); or (3) PI staining of dead cells and analyzed by flow cytometry. At end of culture, cells are stained with 10 μg/ml PI and PI negative cells are gated as viable cells. For analysis of condensed nuclei of hepatocytes, cells are stained with 10 ng/ml […] (Molecular Probes) and analyzed by flow cytometry.
On the technique in general: Cellular ATP, detected with luciferase, serves as a proxy for viable cell number.

The test system of a further data set is MMP-1 and MMP-3. Kind of data set: MMP ELISA of RA synovial cell supernatants. The class given is cell-based, human. As to conditions: RA synovial cells, overnight. As to the method:
Thus, it is possible that TRAIL, like TNF-α, may serve as a pro-inflammatory cytokine. […] The levels of the MMP-1 and MMP-3 in the culture supernatants are determined by the ELISA kits.
In general terms: In an ELISA, binding on a coated surface is turned into a signal by an enzyme label.

The test system of a further data set is NF-κb. Put plainly: Gel-shift assay in RA synovial cells. It is filed as cell-based, human. To be noted: 50 ng/ml TRAIL, Fas ligand or TRA-8, 20 ng/ml TNF-a. As for the experimental part: There is considerable evidence to support the concept that there are close links between the signaling of apoptosis and the signaling of proliferation (45). It has been established that DR5 is able to activate a NF-kb pathway in addition to apoptosis signaling transduction, and that NF-κb activation may be able to transduce an anti-apoptosis signal. Therefore a gel-shift assay is carried out. […] The nuclear extracts are prepared and incubated with the […] [^32P]-labeled oligo-DNA probe. The results are analyzed using the cyclone phospha-imager (TopCount NXT, Packard Instrument Company, CT).

The next data set has as its system primary B cells. Kind of data set: Apoptosis by ATPLite, overnight. The class given is cell-based, human. As for the experimental part:
as §1

For a further data set, the system named is H-9 cells. Kind of data set: Apoptosis by ATPLite, overnight. It is filed as cell-based, human. As for the experimental part:
as §1

For a further data set, the system named is Molt-4 and U937 cells. Put plainly: Apoptosis by ATPLite, overnight. It is filed as cell-based, human. As for the experimental part:
as §1

The next data set deals with Hs683 and U251-MG. Kind of data set: Apoptosis by ATPLite, overnight. It is filed as cell-based, human. To be noted: glioma lines Hs683 and U251-MG. As to the method:
as §1

Another data set has as its system SKW6.4, EB-3, and Raji. Kind of data set: Apoptosis by ATPLite, overnight. The class given is cell-based, human. To be noted: B lymphoma lines SKW6.4, EB-3, Raji. As to the method:
as §1

The test system of the next data set is Daudi. Kind of data set: Apoptosis by ATPLite, overnight. The class given is cell-based, human. As to conditions: B lymphoma line Daudi. As for the experimental part: as §1
The next data set has as its system Jurkat and CEM-6. Put plainly: Apoptosis by ATPLite, overnight. The class given is cell-based, human. As for the experimental part: as §1
The test system of a further data set is U87, U937 and Molt-4. Kind of data set: Apoptosis by ATPLite, overnight. It is filed as cell-based, human. To be noted: glioma line U87, hematopoietic lines U937 and Molt-4. As for the experimental part:
as §1

Data set [2] deals with Primary peripheral blood T cells. Put plainly: Apoptosis by ATPLite, overnight. It is filed as cell-based, human. As for the experimental part:
as §1

The subject of another data set is normal human hepatocytes. Put plainly: Hepatocyte viability (ATPLite). The class given is cell-based. The source says: For 24-hour cell viability assays, fresh normal human hepatocytes in 96-well plates were purchased from In Vitro Technology (Baltimore, Md.). […] For 6-hour viability assays, normal hepatocytes or hepatocellular cancer cells are isolated from fresh surgical specimens collected from UAB Tissue Procurement Center. All reagents for isolation of human hepatocytes including hepatocytes perfusion buffer, digest medium, washing medium, and attachment medium were purchased from Gibco. The tissue slides are digested in the Hepatocyte Digest Medium at 37° C. with shaking (50 rpm) for one hour. The isolated hepatocytes are harvested by low speed centrifugation (50 g, 3 min), and washed with the Hepatocyte Washing Medium six times. Single cell suspension of hepatocytes are cultured in the Attachment Medium containing 10% FCS in 96-well Matrigel plates (BD) for six hours. Non-attached hepatocytes are removed by twice washing with pre-warmed attachment medium.

The target of the next data set is T1, DR4 (Homo sapiens, UniProt O00220).
T1 construct: fusion protein comprising the extracellular domain of human DR5 or DR4 and the Fc region of human IgG1
Put plainly: ELISA binding to DR4-Ig fusion protein. To be noted: ELISA plates coated with DR4/hIgG1. As for the experimental part:
ELISA plates are coated with 2 μg/ml of DR4-Ig or DR5-Ig fusion protein overnight. […] The reactions are developed by TMB substrate buffer and measured by the Benchmark Microplate Reader (BioRad). The Kd values are estimated by the one-site binding model of non-linear regression using GraphPad Prism software (GraphPad Software, San Diego, Calif.).

The test system of the next data set is OA synovial cells. Kind of data set: Apoptosis of primary synovial cells. It is filed as cell-based, human. To be noted: OA72M cells. The source says: (§2) Cell viability is the percentage of the cpm of treated cells versus the cpm of untreated cells.
(§3) The expression of DR5 on a panel of eight primary cultured synovial cells from patients with RA is compared with that on eight primary cultured synovial cells from patients with osteoarthritis (hereinafter referred to as “OA”). The eight human primary RA synovial cell cultures RA-1014, RA-1016, RA-1021, RA-512, RA-707, RA-811, RA-716, and RA-929 are kindly provided by Dr. M. Ohtsuki (Sankyo Co. Ltd., Tokyo, Japan) and cultured in DMEM supplemented with 10% FCS, penicillin, streptomycin, and glutamine. The […] OA synovial cell primary cell cultures are isolated from the synovial tissues of OA patients by a standard collagenase method and cultured under the same conditions. The passage number of all primary cells is under 10. The expression of DR5 is determined by FACs analysis as described in Example 5.

Another data set has as its system RA synovial cells. Put plainly: Apoptosis of primary synovial cells. It is filed as cell-based, human. As to conditions: RA-1014, RA-811, RA-716, RA929; high concentrations (>50 ng/ml).
From the text: as §2, §3

Setting [3] is: aggregate, number of animals (%).

Residues, ends and D or L forms follow the SMILES beside them. *: point of attachment. Cbz = O=C(OCc1ccccc1)*; CH2F = FC*

T1 sequence (O00220 24-239 limits assumed): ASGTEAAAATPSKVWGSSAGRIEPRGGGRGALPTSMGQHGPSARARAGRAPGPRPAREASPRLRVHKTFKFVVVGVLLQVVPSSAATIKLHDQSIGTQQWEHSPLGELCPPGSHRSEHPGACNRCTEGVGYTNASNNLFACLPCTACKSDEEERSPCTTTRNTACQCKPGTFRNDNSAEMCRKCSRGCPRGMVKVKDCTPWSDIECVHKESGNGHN

As for `COc1cccc2c1C(=O)c1c(O)c3c(c(O)c1C2=O)C[C@@](O)(C(=O)CO)C[C@@H]3O[C@H]1C[C@H](N)[C@H](O)[C@H](C)O1` [Adriamycin, adriamycin], in data set [1] (setting [3]), the “Complete Regressions No relapse (%)” value is on record as 0 and the “Complete Regressions Total (%)” value worked out at 0. For the same molecule, the “complete regressions of tumor” value in data set [1] (individual experiments (FIG. 25-27), animals) is recorded as “no complete regressions”. The “inhibition of tumor growth compared to untreated controls” value in data set [1] (individual experiments, TRA-8 200 μg i.p. x6, Kruskal-Wallis test) is recorded as “did not differ from controls”. Besides, the “intense TUNEL stained cells” value in the data set with 2LMP xenografts is reported as 6%.
In the case of `CC(NC(=O)C(NC(=O)OCc1ccccc1)C(C)C)C(=O)NC(CC(=O)O)C(=O)CF` (stereo not drawn) [Z-VAD] (Cbz-Val-Ala-Asp-CH2F; configuration not given here), in the data set with Jurkat cells, the “inhibition of TRA-8-induced cell death” value was “completely inhibited”.
IL-1b: proinflammatory cytokine: the “production of MMPs” value with MMP-1 and MMP-3 was “increased”.
With TNF-α, the “production of MMPs” value with MMP-1 and MMP-3 is on record as “increased”. In addition, the NF-κb activation result in the data set with NF-κb is given as “activated in a time-dependent fashion”.
As for “TRAIL: soluble recombinant human TRAIL (aa 95 to 281) with FLAG tag, Alexis; used with anti-FLAG crosslinker”, the apoptosis after treatment result in the data set on primary B cells was “did not undergo apoptosis”. Also, the susceptibility to apoptosis entry is “resistant” in the data set with H-9 cells; “partially susceptible” with Molt-4 and U937 cells; “very susceptible” in the data set with SKW6.4, EB-3, and Raji; “much less susceptible” in the data set on Daudi; “highly susceptible” with Jurkat and CEM-6; “resistant” in [2]. Besides, the susceptibility to apoptosis result in the data set with OA synovial cells was “completely resistant”. Also, the sensitivity to apoptosis entry is listed as “resistant” in the data set on Hs683 and U251-MG; “exhibited sensitivity” in the data set with U87, U937 and Molt-4. Moreover, the hepatocytes killed entry was “Over 20%” in the data set with normal human hepatocytes (6-hour culture, 500 ng/ml TRAIL) and “more than 80%” in the data set on normal human hepatocytes (24-hour culture, 1 μg/ml, TRAIL plus crosslinker). The “hepatocytes killed in the presence of cycloheximide” value in the data set with normal human hepatocytes (four-hour culture, 1 μg/ml cycloheximide) is on record as “greater than 70%”. Moreover, the “production of MMPs” value with MMP-1 and MMP-3 is recorded as “not associated with increased release”. The “binding activity to DR4” value with DR4 was “bound to DR4”. In addition, in the data set on NF-κb, the NF-κb activation result is on record as “activated in a time-dependent fashion”. For the same molecule, in the data set on RA synovial cells, the cell death was about 100%.

B1: Fas ligand: recombinant soluble Fas ligand used with enhancer (protein, UniProt P48023 103-281, looked up)
extracellular domain: QLFHLQKELAELRESTSQMHTASSLEKQIGHPSPPPEKKELRKVAHLTGKSNSRSMPLEWEDTYGIVLLSGVKYKKGGLVINETGLYFVYSKVYFRGQSCNNLPLSHKVYMRNSKYPQDLVMMEGKMMSYCTTGQMWARSSYLGAVFNLTSADHLYVNVSELSLVNFEESQTFFGLYKL
modifications: extracellular domain
notes: recombinant soluble Fas ligand used with enhancer
As for B1, the NF-κb activation result in the data set on NF-κb is recorded as “unable to induce NF-κb activation”.
